Legend:
[1] = target: T1, MTHFD2 recombinant human enzyme (Homo sapiens, UniProt P13995); test: MTHFD2 inhibition assay (NAD(P)H-Glo luminescence); settings: for MTHFD1/MTHFD2 IC50 ratio: selectivity of MTHFD2 inhibition over MTHFD1, band
T1 sequence (P13995 36-350): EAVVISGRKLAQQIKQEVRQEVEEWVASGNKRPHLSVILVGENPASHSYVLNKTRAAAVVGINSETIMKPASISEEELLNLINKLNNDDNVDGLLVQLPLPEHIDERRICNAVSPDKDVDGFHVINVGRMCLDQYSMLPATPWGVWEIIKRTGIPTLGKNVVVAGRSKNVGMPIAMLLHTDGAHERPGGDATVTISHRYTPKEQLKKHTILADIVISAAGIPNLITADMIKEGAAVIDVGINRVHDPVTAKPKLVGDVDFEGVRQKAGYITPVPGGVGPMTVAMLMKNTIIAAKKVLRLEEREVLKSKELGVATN

[2] = target: T2, MTHFD1 recombinant human enzyme (Homo sapiens, UniProt P11586); test: MTHFD1 inhibition assay (NAD(P)H-Glo luminescence); settings: MTHFD1 IC50, recombinant human enzyme 200 nM, NADP, band
T2 sequence (P11586 2-291 limits assumed): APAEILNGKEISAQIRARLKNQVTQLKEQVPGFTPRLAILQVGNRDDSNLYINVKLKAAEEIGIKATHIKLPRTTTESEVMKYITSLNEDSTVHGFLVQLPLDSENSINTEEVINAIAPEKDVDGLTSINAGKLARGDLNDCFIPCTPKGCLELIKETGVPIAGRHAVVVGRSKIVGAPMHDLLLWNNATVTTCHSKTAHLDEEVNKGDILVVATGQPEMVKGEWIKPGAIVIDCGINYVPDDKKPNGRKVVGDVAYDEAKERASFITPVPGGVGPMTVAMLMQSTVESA

human CD4+ T cells = test: Human CD4+ T-cell proliferation assay (CFSE, CD3/28 beads); settings: read-out: Proliferation IC50

Row | Structure (SMILES) | IC50 [1] | MTHFD1/MTHFD2 IC50 ratio [1] | IC50 [2] | IC50 (human CD4+ T cells)
1 | COC[C@H]1CN(c2cc(Cl)c3c4c(c(=O)oc3c2C)CN(C(=O)c2cc(N(C)C)c(C(=O)NS(=O)(=O)N(C)C)cc2F)CC4)CCN1C [Example 260, (R)-4-(10-chloro-8-(3-(methoxymethyl)-4-methylpiperazin-1-yl)-7-methyl-5-oxo-1,3,4,5-tetrahydro-2H-chromeno[3,4-c]pyridine-3-carbonyl)-2-(dimethylamino)-N-(N,N-dimethylsulfamoyl)-5-fluorobenzamide] | 1 to 10 nM | J (>30) | 100 to 1000 nM | 10 to 30 nM
2 | COC[C@H]1CN(c2cc(C)c3c4c(c(=O)oc3c2C)CN(C(=O)c2ccc(C(=O)NS(=O)(=O)N3C5CCC3CC5)c(OC)c2F)CC4)CCN1C [Example 157, (R)-N-((7-azabicyclo[2.2.1]heptan-7-yl)sulfonyl)-3-fluoro-2-methoxy-4-(8-(3-(methoxymethyl)-4-methylpiperazin-1-yl)-7,10-dimethyl-5-oxo-1,3,4,5-tetrahydro-2H-chromeno[3,4-c]pyridine-3-carbonyl)benzamide] | 10 to 100 nM | H (>9.0 to 30) | 100 to 1000 nM | 30 to 100 nM
3 | CCOc1c(C(=O)N2CCc3c(c(=O)oc4c(C)c(N5CCN(C)[C@@H](COC)C5)cc(C)c34)C2)ccc(C(=O)NS(=O)(=O)N2CCCC2)c1F [Example 223, (R)-3-ethoxy-2-fluoro-4-(8-(3-(methoxymethyl)-4-methylpiperazin-1-yl)-7,10-dimethyl-5-oxo-1,3,4,5-tetrahydro-2H-chromeno[3,4-c]pyridine-3-carbonyl)-N-(pyrrolidin-1-ylsulfonyl)benzamide] | 1 to 10 nM | F (<3) | 1 to 10 nM | 1 to 10 nM
4 | COC[C@H]1CN(c2cc(C)c3c4c(c(=O)oc3c2C)CN(C(=O)c2cc(OC3CCC3)c(C(=O)NS(=O)(=O)C3(C)CC3)c(C(F)(F)F)c2)CC4)CCN1C [Example 130, (R)-2-cyclobutoxy-4-(8-(3-(methoxymethyl)-4-methylpiperazin-1-yl)-7,10-dimethyl-5-oxo-1,3,4,5-tetrahydro-2H-chromeno[3,4-c]pyridine-3-carbonyl)-N-((1-methylcyclopropyl)sulfonyl)-6-(trifluoromethyl)benzamide] | 10 to 100 nM | J (>30) | 1000 to 5000 nM | 1000 to 5000 nM
5 | CNc1cc(C(=O)N2CCc3c(c(=O)oc4c(C)c(N5CCN(C)[C@@H](COC)C5)cc(C)c34)C2)c(F)cc1C(=O)NS(=O)(=O)N1CCCC1 [Example 201, (R)-5-fluoro-4-(8-(3-(methoxymethyl)-4-methylpiperazin-1-yl)-7,10-dimethyl-5-oxo-1,3,4,5-tetrahydro-2H-chromeno[3,4-c]pyridine-3-carbonyl)-2-(methylamino)-N-(pyrrolidin-1-ylsulfonyl)benzamide] | 10 to 100 nM | J (>30) | 1000 to 5000 nM | 100 to 1000 nM
6 | CCOc1cc(C(=O)N2CCc3c(c(=O)oc4c(C)c(N5CCN(C)[C@@H](COC)C5)cc(C)c34)C2)c(F)cc1C(=O)NS(=O)(=O)N1C2CCC1CC2 [Example 218, (R)-N-((7-azabicyclo[2.2.1]heptan-7-yl)sulfonyl)-2-ethoxy-5-fluoro-4-(8-(3-(methoxymethyl)-4-methylpiperazin-1-yl)-7,10-dimethyl-5-oxo-1,3,4,5-tetrahydro-2H-chromeno[3,4-c]pyridine-3-carbonyl)benzamide] | 10 to 100 nM | H (>9.0 to 30) | 100 to 1000 nM | 30 to 100 nM
7 | COC[C@H]1CN(c2ccc3c4c(c(=O)oc3c2C)CN(C(=O)c2cc(F)c(C(=O)NS(=O)(=O)C3(C)CC3)c(N3C5CCC3CC5)c2)CC4)CCN1C [Example 22, (R)-2-(7-azabicyclo[2.2.1]heptan-7-yl)-6-fluoro-4-(8-(3-(methoxymethyl)-4-methylpiperazin-1-yl)-7-methyl-5-oxo-1,3,4,5-tetrahydro-2H-chromeno[3,4-c]pyridine-3-carbonyl)-N-((1-methylcyclopropyl)sulfonyl)benzamide] | 1 to 10 nM | F (<3) | 1 to 10 nM | 10 to 30 nM
8 | COC[C@H]1CN(c2cc(Cl)c3c4c(c(=O)oc3c2C)CN(C(=O)c2cc(OC)c(C(=O)NS(=O)(=O)N3CC5CC5C3)cc2F)CC4)CCN1C (stereo partly drawn) [Example 325, N-((3-azabicyclo[3.1.0]hexan-3-yl)sulfonyl)-4-(10-chloro-8-((R)-3-(methoxymethyl)-4-methylpiperazin-1-yl)-7-methyl-5-oxo-1,3,4,5-tetrahydro-2H-chromeno[3,4-c]pyridine-3-carbonyl)-5-fluoro-2-methoxybenzamide] | 1 to 10 nM | J (>30) | 100 to 1000 nM | 100 to 1000 nM
9 | COC[C@H]1CN(c2cc(Cl)c3c4c(c(=O)oc3c2C)CN(C(=O)c2cc(N(C)C)c(C(=O)NS(=O)(=O)N(C)C)cc2Cl)CC4)CCN1C [Example 291, (R)-5-chloro-4-(10-chloro-8-(3-(methoxymethyl)-4-methylpiperazin-1-yl)-7-methyl-5-oxo-1,3,4,5-tetrahydro-2H-chromeno[3,4-c]pyridine-3-carbonyl)-2-(dimethylamino)-N-(N,N-dimethylsulfamoyl)benzamide] | 10 to 100 nM | J (>30) | 1000 to 5000 nM | 30 to 100 nM
10 | COC[C@H]1CN(c2cc(Cl)c3c4c(c(=O)oc3c2C)CN(C(=O)c2cc(N(C)C)c(C(=O)NS(=O)(=O)N3C5CCC3COC5)cc2F)CC4)CCN1C [Example 322, N-((3-oxa-8-azabicyclo[3.2. 1]octan-8-yl)sulfonyl)-4-(10-chloro-8-((R)-3-(methoxymethyl)-4-methylpiperazin-1-yl)-7-methyl-5-oxo-1,3,4,5-tetrahydro-2H-chromeno[3,4-c]pyridine-3-carbonyl)-2-(dimethylamino)-5-fluorobenzamide] | 1 to 10 nM | J (>30) | 1000 to 5000 nM | 30 to 100 nM
11 | COC[C@H]1CN(c2cc(C)c3c4c(c(=O)oc3c2C)CN(C(=O)c2cc(N(C)C)c(C(=O)NS(=O)(=O)N3CCC[C@@H]3COC)cc2F)CC4)CCN1C [Example 311, 2-(dimethylamino)-5-fluoro-4-(8-((R)-3-(methoxymethyl)-4-methylpiperazin-1-yl)-7,10-dimethyl-5-oxo-1,3,4,5-tetrahydro-2H-chromeno[3,4-c]pyridine-3-carbonyl)-N-(((R)-2-(methoxymethyl)pyrrolidin-1-yl)sulfonyl)benzamide] | 1 to 10 nM | J (>30) | 1000 to 5000 nM | 1 to 10 nM
12 | COC[C@H]1CN(c2ccc3c4c(c(=O)oc3c2C)CN(C(=O)c2cc(N(C)C)c(C(=O)NS(=O)(=O)N3CC5CC5C3)cc2F)CC4)CCN1C (stereo partly drawn) [Example 181, N-((3-azabicyclo[3.1.0]hexan-3-yl)sulfonyl)-2-(dimethylamino)-5-fluoro-4-(8-((R)-3-(methoxymethyl)-4-methylpiperazin-1-yl)-7-methyl-5-oxo-1,3,4,5-tetrahydro-2H-chromeno[3,4-c]pyridine-3-carbonyl)benzamide] | 10 to 100 nM | H (>9.0 to 30) | 100 to 1000 nM | 10 to 30 nM
13 | CCOc1c(C(=O)NS(=O)(=O)N2C3CCC2CC3)ccc(C(=O)N2CCc3c(c(=O)oc4c(C)c(N5CCN(C)[C@@H](COC)C5)cc(C)c34)C2)c1F [Example 228] | 10 to 100 nM | G (^ 3 to 9.0) | 100 to 1000 nM | 1 to 10 nM
14 | [2H]C([2H])([2H])Oc1cc(C(=O)N2CCc3c(c(=O)oc4c(C)c(N5CCN(C)[C@@H](COC)C5)cc(Cl)c34)C2)c(F)cc1C(=O)NS(=O)(=O)N1CC2CC2C1 (stereo partly drawn) [Example 327, N-((3-azabicyclo[3.1.0]hexan-3-yl)sulfonyl)-4-(10-chloro-8-((R)-3-(methoxymethyl)-4-methylpiperazin-1-yl)-7-methyl-5-oxo-1,3,4,5-tetrahydro-2H-chromeno[3,4-c]pyridine-3-carbonyl)-5-fluoro-2-(methoxy-d3)benzamide] | 1 to 10 nM | J (>30) | 100 to 1000 nM | 100 to 1000 nM
15 | CCOc1cc(C(=O)N2CCc3c(c(=O)oc4c(C)c(N5CCN(C)[C@@H](COC)C5)cc(Cl)c34)C2)c(F)cc1C(=O)NS(=O)(=O)N1CCCC1 [Example 259, (R)-4-(10-chloro-8-(3-(methoxymethyl)-4-methylpiperazin-1-yl)-7-methyl-5-oxo-1,3,4,5-tetrahydro-2H-chromeno[3,4-c]pyridine-3-carbonyl)-2-ethoxy-5-fluoro-N-(pyrrolidin-1-ylsulfonyl)benzamide] | 1 to 10 nM | J (>30) | 100 to 1000 nM | 30 to 100 nM

Reference: US12662489B2 (Sitryx Therapeutics Limited, priority 2023, dated 2026)
